This note sets out measurements from patent US20260199485A1, “RNA DEGRADERS AND USES THEREOF” (Arrakis Therapeutics, Inc., priority 2022, published 2026).

Assay [1] deals with T1, CNOT7-FKBP12(F36V) fusion protein (Homo sapiens, UniProt Q9UIV1).
T1 construct: expressed in transfected cells; host or cells: H1299 cells; anti-HA immunoprecipitation, HA-peptide elution
As to the kind of experiment: Biochemical gel assay: degradation/deadenylation of RNA substrate with immunoprecipitated CNOT7-FKBP12(F36V). Also noted: key to Activity by gel: +: an activity observed as compared to DMSO control; −: no activity observed as compared to DMSO control. As to conditions: for interference with the ability of CNOT7 to degrade RNA: compound added to the CNOT7 and RNA mixture (FIG. 11); for Activity by gel: Table 8, degradation of RNA, compared to DMSO control. From the text:
Biochemical reporter systems were generated to evaluate the ability of CNOT7 binding compounds to accelerate the degradation of RNA by CNOT7. […] Generation of the target RNA was described in the previous experiment. […] The bifunctional molecules consist of Compound 1-4 and the following rSM:
which binds to the RNA sequence of AST-X, or the rSM linked to a tag that binds CNOT7-FKBPV. Specifically, the tag is compound AP1867 (CAS NO.: 195514-23-9), a known binder of FKBPV, resulting in the rSM-AP1867tag. The CNOT7-FKBPV is obtained by immunoprecipitation of cell engineered to express CNOT-FKBPV. Specifically, H1299 cells were transfected with plasmid expressing HA-tagged CNOT7-FKBP12(F36V) fusion protein. After 24 hours, cells were pelleted and lysed in the following lysis buffer: 20 mM HEPES pH 7.3, 0.2 mM EGTA, 10% glycerol, 0.1 mM DTT with cOmplete EDTA-free protease inhibitors (Millipore). After freeze-thawing, NaCl was added to a concentration of 400 mM and lysates were pelleted to clear cellular debris. Cleared lysate was adjusted to buffer conditions containing 0.1% NP-40 and 150 mM NaCl before being applied to Pierce Anti-HA magnetic beads (ThermoFisher) at 4° C. for 2-20 hours with end-over-end rotation. After washing, bound protein was competitively eluted with 2 mg/mL HA peptide (ThermoFisher) in activity assay buffer at 4° C. for 2-20 hours. It should be appreciated that this immunoprecipitation protocol will result in tagged CNOT7 that will likely have other components of the CCR4-NOT complex bound as well.
The reactions were incubated at 37° C., with specified timepoints removed from the reaction and combined with 2× formamide RNA loading buffer with 10 mM EDTA before boiling for 3 minutes to quench the reaction. Samples were run on a pre-warmed 15% TBE-Urea polyacrylamide gel at 180V for 90 minutes and then imaged using Cy2 settings on the Azure Biosystems 600 Imaging System. […] It should be noted that the CCR4-NOT complex includes proteins other than CNOT7, for instance CNOT6, that have deadenylation and/or exonuclease activity.
These findings were confirmed in the biochemical assay described above. […] In contrast, literature compounds that are active site binders, compounds A, B and C, structure depicted on the right-hand side, do interfere with the ability of CNOT7 to degrade RNA (See center panel of gel).
Heterobifunctional molecules were generated by conjugating the rSM depicted above, which binds RNA with an AST-X sequence, to AP1867 (a small molecule binder of FKBP12(F36V)), resulting in rSM-AP1867tag. In addition, I-243 was conjugated to the rSM resulting in compounds 1-329 and I-371, depicted in FIG. 17. Fluorescently labeled RNA substrates were refolded in the presence of Mg^2+ and incubated 10, 25, or 50 μM doses of heterobifunctional molecules for 30 minutes at room temperature before the enzymatic reaction was initiated with the elution fraction (containing CNOT7-FKBP12(F36V) fusion protein) from the immunoprecipitation protocol above. The reactions were incubated at 37° C., with specified timepoints removed from the reaction and combined with 2× formamide RNA loading buffer with 10 mM EDTA before boiling for 3 minutes to quench the reaction. Samples were run on a pre-warmed 15% TBE-Urea polyacrylamide gel at 180V for 120 minutes and then imaged using Cy2 settings on the Azure Biosystems 600 Imaging System (See FIGS. 18, 19A and 19B). In addition, for 1-371 and the control rSM-AP1867tag, the disappearance of the full-length substrate band was quantified using ImageJ and plotted over time (FIG. 19B).

The target of assay [2] is T2, CNOT7 (Homo sapiens, UniProt Q9UIV1).
T2 construct: biotin (biotinylated); purchased Ichor Life Sciences
As to the kind of experiment: AMP competition assay by SPR (active site vs other site of CNOT7). Type of assay: binding. As to conditions: combination with AMP, increasing concentrations. On the procedure: In order to evaluate if the compounds bound to the active site of CNOT7, an AMP competition experiment was performed. FIG. 5 provides a schematic of a surface plasmon resonance (SPR) experiment to interrogate if a CNOT7 binding compound binds in the active site of CNOT7. Briefly, AMP, which is a known binder to the active site, was interrogated at increasing concentrations for binding to CNOT7. As a next step, a CNOT7 binding compound was interrogated at increasing concentrations for binding to CNOT7. As a final step a combination of AMP and CNOT7 binding compound was interrogated by SPR at increasing concentrations for binding to CNOT7. If the signals were additive, AMP and the CNOT7 compounds bind to independent sites on CNOT7. […] In contrast, if the signals are not additive, this would indicate that AMP and CNOT7 […] for the same site. […] As a control, literature compounds that are active site binders, compounds A, B and C, are not additive when combined with AMP.
(In SPR one partner is held on a chip, and binding of the other changes the refractive index at the surface.)

The target of assay [3] is T2, CNOT7. The assay is described as follows: Binding of compounds to CNOT7 by surface plasmon resonance (SPR). The essentials: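 Biotinylated CNOT7 captured on a streptavidin chip (~7,500 RU); compounds injected at several concentrations (120 s association, 120 s dissociation, 30 ul/min) in 20 mM HEPES pH7.5, 100 mM KCl, 3 mM MgCl2, 1 mM TCEP, 0.05% tween-20, 2% DMSO. Reference- and solvent-corrected sensograms fit to a 1:1 steady-state affinity model.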

Assay [4] deals with T2, CNOT7. The assay is described as follows: CNOT7 inhibition assay (recombinant Avi-tagged CNOT7, deadenylation gel). The class given is biochemical. As to conditions: 50 μM compound, 100 nM recombinant Avi-tagged CNOT7, 200 nM RNA. On the procedure:
Recombinant CNOT7 (with a C-terminal Avi tag) was produced in E. coli and purified to high purity. For this biochemical assay, deadenylation reactions are carried out by refolding 2 microM fluorescently labeled RNA substrate (5′ 6-FAM-[…] AAAAAA (SEQ ID NO:1) in the presence of 100 mM KCl and 3 mM MgCl2 at 37 C for 30 minutes and then pre-incubating the RNA with 500 microM compound (inhibitor, heterobifunctional, or the CNOT7 binding moiety of the heterobifunctional) at room temperature for 30 minutes (in the presence of 0.05% Tween-20) before initiating the deadenylation reaction with the addition of the recombinant CNOT7 (with Avi-tag). In the reactions, the final concentration of RNA was 200 nM, the final concentration of the compounds was 50 μM, and the final concentration of CNOT7 was 100 nM. Glycerol and BSA were included in the reactions to aid in protein stability and activity (final concentrations of 5% and 0.15 mg/mL, respectively). Timepoints were removed from the reaction and quenched by adding formamide loading dye including 10 mM EDTA. Samples were run on 15% TBE-Urea gels at 180V for 2-2.5 hours and imaged using an Azure imager with FAM detection settings. Bands were quantified using ImageJ and % full length substrate over time was normalized to band intensity at time zero.
This was to be expected as the CNOT7 binding moieties are not expected to bind in the active site or interfere with the ability of CNOT7 to deadenylate RNA. […] We speculate that the inhibition is caused by specific interaction of the heterobifunctional compounds with the recombinant Avi-tagged CNOT7.

The target in assay [5] is T3, CNOT7:CNOT1 complex (Homo sapiens, UniProt Q9UIV1).
T3 construct: purchased Helix Biosciences; host or cells: E. coli
As to the kind of experiment: CNOT7:CNOT1 recombinant assay (deadenylation gel). As to conditions: 50 microM compound, 50 nM CNOT7:CNOT1. Type of assay: biochemical. On the procedure:
Recombinant CNOT7:CNOT1 (MIF4G domain: aa 1093-1317) complex was produced in E. coli including an 8×His affinity tag, which was cleaved prior to use. The resulting untagged complex was purified to high purity (Helix Biosciences). For this biochemical assay, deadenylation reactions are carried out by refolding 2 microM fluorescently labeled RNA substrate (5′ 6-FAM-[…] AAAAAA (SEQ ID NO:1)) in the presence of 100 mM KCl and 3 mM MgCl2 at 37 C for 30 minutes and then pre-incubating the RNA with 500 microM compound (inhibitor, heterobifunctional, or the CNOT7 binding moiety of the heterobifunctional) at room temperature for 30 minutes (in the presence of 0.05% Tween-20) before initiating the deadenylation reaction with the addition of recombinant CNOT7:CNOT1 complex. In the reactions, the final concentration of RNA was […], the final concentration of the compounds was 50 microM, and the final concentration of CNOT7:CNOT1 was 50 nM. Glycerol and BSA were included in the reactions to aid in protein stability and activity (final concentrations of 5% and 0.15 mg/mL, respectively). Timepoints were removed from the reaction and quenched by adding formamide loading dye including 10 mM EDTA. Samples were run on 15% TBE-Urea gels at 180V for 2-2.5 hours to resolve substrate and product bands and imaged using an Azure imager with FAM detection settings. Bands were quantified using ImageJ and % full length substrate over time was calculated by [Intensity of substrate band]/[Total intensity of full lane of gel].

Setting [6] is: Table 4, dissociation constant for CNOT7.
Where [7] appears, read: Table 5, dissociation constant for CNOT7 by SPR.
Setting [8] is: dissociation constant by SPR, Table 7.

The structures appear in SMILES notation. Bounds are passed on as bounds.

T1 sequence (Q9UIV1 with tags, fused parts or gaps): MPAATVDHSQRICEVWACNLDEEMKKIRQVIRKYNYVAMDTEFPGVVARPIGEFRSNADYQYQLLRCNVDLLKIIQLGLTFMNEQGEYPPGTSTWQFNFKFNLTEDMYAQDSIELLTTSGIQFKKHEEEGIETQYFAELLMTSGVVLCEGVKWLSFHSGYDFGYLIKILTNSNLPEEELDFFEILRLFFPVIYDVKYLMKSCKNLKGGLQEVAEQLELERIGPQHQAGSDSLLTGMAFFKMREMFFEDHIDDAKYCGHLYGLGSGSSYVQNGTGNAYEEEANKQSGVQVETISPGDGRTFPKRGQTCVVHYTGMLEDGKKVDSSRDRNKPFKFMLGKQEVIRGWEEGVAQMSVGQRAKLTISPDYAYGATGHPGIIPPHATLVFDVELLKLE
T2 sequence (Q9UIV1 whole entry): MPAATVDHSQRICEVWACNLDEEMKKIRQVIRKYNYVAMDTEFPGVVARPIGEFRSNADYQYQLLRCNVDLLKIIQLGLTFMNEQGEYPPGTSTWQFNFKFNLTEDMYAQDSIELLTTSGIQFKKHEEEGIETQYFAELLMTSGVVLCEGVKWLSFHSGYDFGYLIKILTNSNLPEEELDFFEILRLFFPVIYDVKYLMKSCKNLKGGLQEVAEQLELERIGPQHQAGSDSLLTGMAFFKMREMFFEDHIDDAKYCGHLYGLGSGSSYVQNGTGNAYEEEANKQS
T3 sequence (Q9UIV1 whole entry): as above
T3 sequence (A5YKK6 1093-1317 partner limits assumed): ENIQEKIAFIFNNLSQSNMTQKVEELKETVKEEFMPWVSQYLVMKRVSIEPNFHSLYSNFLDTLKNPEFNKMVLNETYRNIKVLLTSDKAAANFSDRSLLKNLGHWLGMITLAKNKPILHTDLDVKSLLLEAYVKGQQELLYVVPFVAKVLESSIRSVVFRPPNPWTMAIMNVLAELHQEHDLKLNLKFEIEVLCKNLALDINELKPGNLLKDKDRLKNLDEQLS

As to `Cc1c[nH]c(=O)nc1SCC(=O)NCc1ccc2c(c1)OCO2` [Compound I-1], in assay [1], the “interference with the ability of CNOT7 to degrade RNA” value (from here on “interference with the ability”) is reported as “did not interfere”. Moreover, the “SPR signal additive to AMP (additive = binds CNOT7 at a location other than the active site)” value (from here on “SPR signal additive to AMP”) in assay [2] was “additive to AMP”. The dissociation constant Kd – broadly, the equilibrium constant for the complex coming apart – in assay [3] (setting [6]) was 1000 to 25000 nM.

Consider `Cc1c[nH]c(=O)nc1SCC(=O)NCc1ccccc1` [Compound I-3, N-Benzyl-2-[(5-methyl-2-oxo-1H-pyrimidin-4-yl)sulfanyl]acetamide], for which the “interference with the ability” value in assay [1] is recorded as “did not interfere”. The “SPR signal additive to AMP” value in assay [2] was “additive to AMP”. The Kd in assay [3] (setting [6]) was above 25000 nM.

For the molecule `COc1ccc(CNC(=O)CSc2nc(=O)[nH]cc2C)cc1` [Compound I-4], the “interference with the ability” value in assay [1] is reported as “did not interfere”. Also, the “SPR signal additive to AMP” value in assay [2] is given as “additive to AMP”. This molecule also returned a dissociation constant Kd in assay [3] (setting [6]) of 1000 to 25000 nM.

`COc1ccc2c(c1)CCN(C(=O)CSc1nc(=O)[nH]cc1C)C2` [Compound I-198]: the “inhibition of CNOT7 activity (rate of deadenylation vs DMSO control)” value in assay [4] is listed as “did not inhibit CNOT7 activity”. In assay [3] (setting [7]), this molecule came in with a Kd of 1000 to 25000 nM. Also, the “inhibited or accelerated the deadenylation activity of the CNOT7:CNOT1 complex” value in assay [5] is given as “neither”.

Consider `COc1ccc(C(C)NC(=O)CSc2nc(=O)[nH]cc2C)c(F)c1` (centres unmarked) [Compound I-243], for which the “inhibition of CNOT7 activity (rate of deadenylation vs DMSO control)” value in assay [4] is reported as “slightly inhibited CNOT7 activity”. In assay [3] (setting [7]), this molecule yielded a Kd of 100 to 1000 nM. For the same molecule, the “inhibited or accelerated the deadenylation activity of the CNOT7:CNOT1 complex” value in assay [5] is “neither”.

Turning to `COc1ccc([C@@H](C)NC(=O)CSc2nc(=O)[nH]cc2Cl)c(F)c1` [Compound I-330], the “inhibition of CNOT7 activity (rate of deadenylation vs DMSO control)” value in assay [4] is listed as “slightly inhibited CNOT7 activity”. The Kd in assay [3] (Table 6, dissociation constant for CNOT7 by SPR) was 100 to 1000 nM; in assay [3] (setting [8]) it was 1000 to 25000 nM. In addition, the “inhibited or accelerated the deadenylation activity of the CNOT7:CNOT1 complex” value in assay [5] is listed as “neither”.

Take `COc1ccc([C@@H](C)NC(=O)[C@@H](CCOCCOCCOCCn2cc(COCCOCCOCCOCCOc3ccc(NC(=O)Nc4nc(CC(=O)N5CCN(C)CC5)cs4)cc3)nn2)Sc2nc(=O)[nH]cc2Cl)c(F)c1` [Compound I-397]: the Activity by gel result in assay [1] is “+”. Besides, the “inhibition of CNOT7 activity (rate of deadenylation vs DMSO control)” value in assay [4] is given as “inhibit some of the CNOT7 activity”. The molecule also came in with a Kd in assay [3] (setting [8]) of 1000 to 25000 nM.

As for `COc1ccc2c(c1)C[C@H](COCCOCCOCCOCCn1cc(COCCOCCOc3ccc(NC(=O)Nc4nc(CC(=O)N5CCN(C)CC5)cs4)cc3)nn1)C(C(=O)CSc1nc(=O)[nH]cc1C)C2` (some centres unmarked) [Compound I-496], the Activity by gel result in assay [1] was “+”. In assay [4], the “inhibition of CNOT7 activity (rate of deadenylation vs DMSO control)” value is reported as “inhibit some of the CNOT7 activity”. The same molecule gave a dissociation constant (Kd) in assay [3] (setting [8]) above 25000 nM. Besides, the “inhibited or accelerated the deadenylation activity of the CNOT7:CNOT1 complex” value in assay [5] is recorded as “neither”.
